# Experiments:
# [1] = tested on: E. coli; test: Blood culture time to positivity (flip time), bead rescue vs no-rescue control; format: cell-based; conditions: Piperacillin 96 ug/mL blood; for Flip time in Days: No bead rescue Control BC; for Time to positivity in days: 1800 cfu/5 ml
# [2] = tested on: E. coli; test: TVC viability of E. coli in whole blood with SPS over time; format: cell-based
# Method: 2×5 mL whole blood or BacTec PLUS aerobic blood broth (1:3 ratio) aliquoted for each sample-set (E. coli and NSC sample). Then SPS added as follows:
# Then 5 μL of E. coli 1E-2 preculture added to each 5-mL specimen tube to recreate standard 1E-5 dilution sample
# • 1.88 μL neat o/n in Nutrient Broth (NB) added to 3 mL NB; and incubated for 2 hours at 37° C., 500 rpm • After 2 hours, E. coli preculture diluted 10-fold in warm NB; and then 5 μL added to each 5 mL specimen tube (prepared as shown in test conditions) • Magnitor Test initiated immediately, and TVCs performed as detailed below.
# • 100 μL on COL plates at Time Zero • Sample bijous, containing approximately 2 mL sample, left at room temperature (20.4° C.) on bench (static) • TVCs performed at time points shown in table: samples mixed thoroughly before plating
compound,measurement,setting,value
CCN1CCN(C(=O)N[C@@H](C(=O)N[C@@H]2C(=O)N3[C@@H]2SC(C)(C)[C@@H]3C(=O)O)c2ccccc2)C(=O)C1=O [Piperacillin],Flip time in Days,[1]; 50000 cfu/5 mL,Neg
same,Flip time in Days,[1]; 150000 cfu/5 mL,Neg
same,Time to positivity in days,[1]; Control (no beads),Neg
same,Time to positivity in days,[1]; with magnetic beads in the bottle,Neg
Sodium polyanethol sulfonate [SPS],FOLD INCR. 0-2 hr,[2]; WB SPS 0.01 %,3.39
same,TVC colonies,"[2]; WB SPS 0.01 %, EC Time 2 hrs",498 colonies
same,TVC colonies,"[2]; WB SPS 0.01 %, EC Time 4 hrs",TNTC
same,TVC colonies,"[2]; WB SPS 0.01 %, EC Time 6 hrs",TNTC
same,TVC colonies,"[2]; WB SPS 0.01 %, EC Time 21 hrs",LAWN
same,TVC colonies,"[2]; WB SPS 0.01 %, EC Time ZERO",147 colonies
same,FOLD INCR. 0-2 hr,[2]; WB SPS 0.02 %,4.67
same,TVC colonies,"[2]; WB SPS 0.02 %, EC Time 2 hrs",448 colonies
same,TVC colonies,"[2]; WB SPS 0.02 %, EC Time 4 hrs",TNTC
same,TVC colonies,"[2]; WB SPS 0.02 %, EC Time 6 hrs",TNTC
same,TVC colonies,"[2]; WB SPS 0.02 %, EC Time 21 hrs",LAWN
same,TVC colonies,"[2]; WB SPS 0.02 %, EC Time ZERO",96 colonies
same,FOLD INCR. 0-2 hr,[2]; WB SPS 0.04 %,3.12
same,TVC colonies,"[2]; WB SPS 0.04 %, EC Time 2 hrs",1106 colonies
same,TVC colonies,"[2]; WB SPS 0.04 %, EC Time 4 hrs",TNTC
same,TVC colonies,"[2]; WB SPS 0.04 %, EC Time 6 hrs",TNTC
same,TVC colonies,"[2]; WB SPS 0.04 %, EC Time 21 hrs",LAWN
same,TVC colonies,"[2]; WB SPS 0.04 %, EC Time ZERO",354 colonies
same,FOLD INCR. 0-2 hr,[2]; WB SPS 0.06 %,5.94
same,TVC colonies,"[2]; WB SPS 0.06 %, EC Time 2 hrs",760 colonies
same,TVC colonies,"[2]; WB SPS 0.06 %, EC Time 4 hrs",TNTC
same,TVC colonies,"[2]; WB SPS 0.06 %, EC Time 6 hrs",TNTC
same,TVC colonies,"[2]; WB SPS 0.06 %, EC Time 21 hrs",LAWN
same,TVC colonies,"[2]; WB SPS 0.06 %, EC Time ZERO",128 colonies
same,FOLD INCR. 0-2 hr,[2]; WB SPS 0.08 %,1.52
same,TVC colonies,"[2]; WB SPS 0.08 %, EC Time 2 hrs",491 colonies
same,TVC colonies,"[2]; WB SPS 0.08 %, EC Time 4 hrs",TNTC
same,TVC colonies,"[2]; WB SPS 0.08 %, EC Time 6 hrs",TNTC
same,TVC colonies,"[2]; WB SPS 0.08 %, EC Time 21 hrs",LAWN
same,TVC colonies,"[2]; WB SPS 0.08 %, EC Time ZERO",322 colonies
same,FOLD INCR. 0-2 hr,[2]; WB SPS 0.1 %,2.71
same,TVC colonies,"[2]; WB SPS 0.1 %, EC Time 2 hrs",341 colonies
same,TVC colonies,"[2]; WB SPS 0.1 %, EC Time 4 hrs",TNTC
same,TVC colonies,"[2]; WB SPS 0.1 %, EC Time 6 hrs",TNTC
same,TVC colonies,"[2]; WB SPS 0.1 %, EC Time 21 hrs",LAWN
same,TVC colonies,"[2]; WB SPS 0.1 %, EC Time ZERO",126 colonies

# — US20240210394A1, “MICROORGANISM CAPTURE FROM ANTIMICROBIAL-CONTAINING SOLUTION” (MOMENTUM BIOSCIENCE LIMITED, priority 2019, published 2024)
